Assay results published in PubChem BioAssay AID2060897 (Molecular Pharmacology Branch, DTP, NCI, 2025).

Tested on: 966289-007-R4-J1-PDC complex spheroid viability
Experiment: Anticancer human tumor 966289-007-R4-J1-PDC patient-derived pancreatic adenocarcinoma cell line growth inhibition [RAS]
Conditions: for IC50: curve of first compound; for viability, T/C: stronger effect = lower value
Method in brief: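 Tumour cells grown as complex spheroids with HUVEC endothelial cells and mesenchymal stem cells, treated with RAS pathway inhibitor combinations. Each agent spans half-log steps from near clinical Cmax, or 10 microM where Cmax is unknown.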
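Note: spheroids exposed to agents for one week before readout.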
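Throughout, for viability, T/C: percent viability relative to DMSO vehicle control wells as 100%.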

For `CCc1c2c(nc3ccc(O)cc13)-c1cc3c(c(=O)n1C2)COC(=O)[C@]3(O)CC` + CCn1c(-c2cc(N3CCN(C)CC3)cnc2C(C)OC)c2c3cc(ccc31)-c1csc(n1)CC(NC(=O)C1CC1C)C(=O)N1CCCC(N1)C(=O)OCC(C)(C)C2, the IC50 (second compound 0.000949 µM) was 1.67 nM, the IC50 (second compound 0.003 µM) was 1.57 nM and the IC50 (second compound 0.00949 µM) was 1.39 nM. The IC50 (second compound 0.03 µM) was 1.14 nM, the IC50 (second compound 0.0949 µM) was 1.15 nM and the IC50 (second compound 0.3 µM) was 1.21 nM. For the same compound, the viability, T/C (second compound 0.000949 µM, first compound 0.000949 µM) was 95.5%, the viability, T/C (second compound 0.000949 µM, first compound 0.003 µM) was 2.7% and the viability, T/C (second compound 0.000949 µM, first compound 0.00949 µM) was 0.64%. It also gave a viability, T/C (second compound 0.000949 µM, first compound 0.03 µM) of 0.62%, a viability, T/C (second compound 0.000949 µM, first compound 0.0949 µM) of 0.49% and a viability, T/C (second compound 0.000949 µM, first compound 0.3 µM) of 0.57%. It also gave a viability, T/C (second compound 0.003 µM, first compound 0.000949 µM) of 86.2%, a viability, T/C (second compound 0.003 µM, first compound 0.003 µM) of 3.2% and a viability, T/C (second compound 0.003 µM, first compound 0.00949 µM) of 0.55%. For the same compound, the viability, T/C (second compound 0.003 µM, first compound 0.03 µM) was 0.6%, the viability, T/C (second compound 0.003 µM, first compound 0.0949 µM) was 1.32% and the viability, T/C (second compound 0.003 µM, first compound 0.3 µM) was 0.57%. The viability, T/C (second compound 0.00949 µM, first compound 0.000949 µM) was 71.3%, the viability, T/C (second compound 0.00949 µM, first compound 0.003 µM) was 6.94% and the viability, T/C (second compound 0.00949 µM, first compound 0.00949 µM) was 1.03%. For the same compound, the viability, T/C (second compound 0.00949 µM, first compound 0.03 µM) was 0.54%, the viability, T/C (second compound 0.00949 µM, first compound 0.0949 µM) was 0.73% and the viability, T/C (second compound 0.00949 µM, first compound 0.3 µM) was 0.75%. For the same compound, the viability, T/C (second compound 0.03 µM, first compound 0.000949 µM) was 58.1%, the viability, T/C (second compound 0.03 µM, first compound 0.003 µM) was 7.49% and the viability, T/C (second compound 0.03 µM, first compound 0.00949 µM) was 0.82%. The viability, T/C (second compound 0.03 µM, first compound 0.03 µM) was 1.66%, the viability, T/C (second compound 0.03 µM, first compound 0.0949 µM) was 0.53% and the viability, T/C (second compound 0.03 µM, first compound 0.3 µM) was 0.43%. For the same compound, the viability, T/C (second compound 0.0949 µM, first compound 0.000949 µM) was 58.9%, the viability, T/C (second compound 0.0949 µM, first compound 0.003 µM) was 4.98% and the viability, T/C (second compound 0.0949 µM, first compound 0.00949 µM) was 0.8%. It also gave a viability, T/C (second compound 0.0949 µM, first compound 0.03 µM) of 0.54%, a viability, T/C (second compound 0.0949 µM, first compound 0.0949 µM) of 0.7% and a viability, T/C (second compound 0.0949 µM, first compound 0.3 µM) of 0.4%. The viability, T/C (second compound 0.3 µM, first compound 0.000949 µM) was 62.1%, the viability, T/C (second compound 0.3 µM, first compound 0.003 µM) was 4.76% and the viability, T/C (second compound 0.3 µM, first compound 0.00949 µM) was 0.65%. For the same compound, the viability, T/C (second compound 0.3 µM, first compound 0.03 µM) was 0.58%, the viability, T/C (second compound 0.3 µM, first compound 0.0949 µM) was 0.62% and the viability, T/C (second compound 0.3 µM, first compound 0.3 µM) was 0.39%.
In the case of `C=CC(=O)Nc1cc(Nc2nccc(-c3cn(C)c4ccccc34)n2)c(OC)cc1N(C)CCN(C)C` + CCn1c(-c2cc(N3CCN(C)CC3)cnc2C(C)OC)c2c3cc(ccc31)-c1csc(n1)CC(NC(=O)C1CC1C)C(=O)N1CCCC(N1)C(=O)OCC(C)(C)C2, the IC50 (second compound 0.000949 µM) is reported as > 1000 nM, the IC50 (second compound 0.003 µM) is reported as > 1000 nM and the IC50 (second compound 0.00949 µM) is reported as > 1000 nM. The IC50 (second compound 0.03 µM) was > 1000 nM, the IC50 (second compound 0.0949 µM) was > 1000 nM and the IC50 (second compound 0.3 µM) was > 1000 nM. The viability, T/C (second compound 0.000949 µM, first compound 0.00316 µM) was 88%, the viability, T/C (second compound 0.000949 µM, first compound 0.01 µM) was 88.8% and the viability, T/C (second compound 0.000949 µM, first compound 0.0316 µM) was 116%. It also gave a viability, T/C (second compound 0.000949 µM, first compound 0.1 µM) of 69.1%, a viability, T/C (second compound 0.000949 µM, first compound 0.316 µM) of 83.5% and a viability, T/C (second compound 0.000949 µM, first compound 1 µM) of 75.5%. The viability, T/C (second compound 0.003 µM, first compound 0.00316 µM) was 90.7%, the viability, T/C (second compound 0.003 µM, first compound 0.01 µM) was 92.2% and the viability, T/C (second compound 0.003 µM, first compound 0.0316 µM) was 80.2%. It also gave a viability, T/C (second compound 0.003 µM, first compound 0.1 µM) of 82.7%, a viability, T/C (second compound 0.003 µM, first compound 0.316 µM) of 110% and a viability, T/C (second compound 0.003 µM, first compound 1 µM) of 79.3%. For the same compound, the viability, T/C (second compound 0.00949 µM, first compound 0.00316 µM) was 111%, the viability, T/C (second compound 0.00949 µM, first compound 0.01 µM) was 87.6% and the viability, T/C (second compound 0.00949 µM, first compound 0.0316 µM) was 98.8%. The viability, T/C (second compound 0.00949 µM, first compound 0.1 µM) was 78.7%, the viability, T/C (second compound 0.00949 µM, first compound 0.316 µM) was 92.9% and the viability, T/C (second compound 0.00949 µM, first compound 1 µM) was 94.7%. It also gave a viability, T/C (second compound 0.03 µM, first compound 0.00316 µM) of 74.4%, a viability, T/C (second compound 0.03 µM, first compound 0.01 µM) of 71.4% and a viability, T/C (second compound 0.03 µM, first compound 0.0316 µM) of 100%. The viability, T/C (second compound 0.03 µM, first compound 0.1 µM) was 88.4%, the viability, T/C (second compound 0.03 µM, first compound 0.316 µM) was 120% and the viability, T/C (second compound 0.03 µM, first compound 1 µM) was 96.8%. The viability, T/C (second compound 0.0949 µM, first compound 0.00316 µM) was 86%, the viability, T/C (second compound 0.0949 µM, first compound 0.01 µM) was 111% and the viability, T/C (second compound 0.0949 µM, first compound 0.0316 µM) was 98.1%. The viability, T/C (second compound 0.0949 µM, first compound 0.1 µM) was 114%, the viability, T/C (second compound 0.0949 µM, first compound 0.316 µM) was 88.2% and the viability, T/C (second compound 0.0949 µM, first compound 1 µM) was 101%. It also gave a viability, T/C (second compound 0.3 µM, first compound 0.00316 µM) of 102%, a viability, T/C (second compound 0.3 µM, first compound 0.01 µM) of 89.6% and a viability, T/C (second compound 0.3 µM, first compound 0.0316 µM) of 103%. For the same compound, the viability, T/C (second compound 0.3 µM, first compound 0.1 µM) was 143%, the viability, T/C (second compound 0.3 µM, first compound 0.316 µM) was 123% and the viability, T/C (second compound 0.3 µM, first compound 1 µM) was 103%.
